Publication PMC8473290 (Viruses, 2021)
Peptide text beside a SMILES is read from it.

How the values were obtained:
[1] = tested on: HCMV strain Merlin-pAL1502; experiment: Reversibility of inhibition of cell-associated spread after peptide removal; format: cell-based, Human cytomegalovirus
[2] = tested on: recent cell-associated clinical HCMV isolates; experiment: Cell-associated focal spread of recent clinical HCMV isolates in HFF co-culture; format: cell-based, Human cytomegalovirus; details: 60 µmol/L, added 1 d p.i., fixed 7 d p.i.
HSV-2 R6 = experiment: Inhibition of cell-free HSV-2 infection of HFFs; format: cell-based, herpes simplex virus 2; details: 1 h preincubation, MOI 1, fixed 6 h p.i.
TB40-BAC4 = experiment: Inhibition of cell-free HCMV infection of HFFs (TB40-BAC4); format: cell-based, Human cytomegalovirus
[3] = tested on: Merlin-pAL1502-UL32EGFP-UL100mCherry; experiment: Single particle analysis of virion transfer with dual fluorescent Merlin; format: cell-based, Human cytomegalovirus; details: 125 µmol/L, added 1 d p.i.
[4] = tested on: HCMV strain Merlin-pAL1502; experiment: Cell-associated focal spread of Merlin-pAL1502 in HFFs; format: cell-based, Human cytomegalovirus
HSV-1 R10.2 = experiment: Inhibition of cell-free HSV-1 infection of HFFs; format: cell-based, herpes simplex virus 1; details: 1 h preincubation, MOI 1, fixed 6 h p.i.

Question: Which results are given for `CC[C@H](C)[C@H](NC(=O)[C@H](Cc1ccc(O)cc1)NC(=O)[C@@H](NC(=O)[C@H](Cc1c[nH]cn1)NC(=O)[C@H](CCCNC(=N)N)NC(=O)CN)[C@@H](C)CC)C(=O)N[C@@H](Cc1ccc(O)cc1)C(=O)N[C@H](C(=O)N1CCC[C@H]1C(=O)N[C@@H](CC(=O)O)C(=O)N1CCC[C@H]1C(=O)N[C@@H](CC(=O)O)C(=O)N[C@H](C(=O)N[C@@H](C)C(=O)N[C@@H](Cc1ccccc1)C(=O)N[C@H](C(=O)N1CCC[C@H]1C(=O)N[C@@H](CC(C)C)C(=O)NCC(=O)N[C@@H](CCSC)C(=O)N[C@H](C(=O)N[C@@H](CC(=O)O)C(=O)N[C@@H](Cc1ccc(O)cc1)C(=O)N[C@@H](CC(C)C)C(=O)N[C@H](C(=O)N[C@H](C(=O)N[C@H](C(=O)N[C@@H](CCC(=O)O)C(=O)N[C@@H](CC(=O)O)C(=O)N[C@@H](CC(=O)O)C(=O)O)C(C)C)[C@@H](C)CC)C(C)C)[C@@H](C)O)C(C)C)C(C)C)C(C)C` [GD30] (H-GRHIYIYVPDPDVAFVPLGMTDYLVIVEDD-OH; N-terminus and C-terminus assumed)?
Answer: Focus size under permanent treatment ([1]; 125 µmol/L from 42 h p.i. until fixation at day 8): almost exclusively single infected cells; Reversibility of the inhibitory effect after peptide removal ([1]; 125 µmol/L from 42 h to 5 d p.i., then 3 d without peptide): completely reversible; Mean focus size after intermittent treatment ([1]; 125 µmol/L from 42 h to 5 d p.i., withdrawn, fixed 8 d p.i., untreated control up to 50): around 15 infected cells per focus; Reduction of focal growth compared with GT40 [2]: to a similar extent but not more than GT40; Extent of inhibition of cell-free virus (HSV-2 R6): completely; Antiviral effect against cell-free virus (TB40-BAC4; 2 h preincubation with virus, MOI 1, fixed next day): effective against cell-free virus; Hill slope of the dose-response curve (TB40-BAC4; cell-free virus, 2 h preincubation, MOI 1): −1.67; Reduction of the total number of particles transferred ([3]; MOI 0.05, versus DMSO control, 10 frames): 78%; Percentage of naked capsids ([3]; MOI 0.05, untreated control 86%): 7%; Reduction of focal growth compared with GT40 ([4]; 60 µmol/L, added 1 d p.i., fixed 7 d p.i.): to a similar extent but not more than GT40; Inhibition of cell-associated spread ([4]; 125 µmol/L, applied 42 h p.i., MOI 0.005): almost completely inhibits; Extent of inhibition of cell-free virus (HSV-1 R10.2): completely
